# Molecular target: Sodium/potassium-transporting ATPase
# Assay: Compound is evaluated for inhibition of specific binding of [3H]ouabain to membranes from dog heart
# Design: species or system Canis lupus familiaris
row,SMILES,IC50 [µM]
1,CC(=O)[C@H]1CC[C@@]2(C)[C@@H](CC[C@@H]3[C@@H]2CC[C@]2(C)[C@@H](C(C)=O)CC[C@@]32O)C1,20
2,CC(=O)[C@H]1CCC2(O)C3CCC4CC(O)CCC4(C)C3CCC12C (stereo partly drawn),> 400
3,C[C@H](O)[C@H]1CC[C@@]2(O)[C@@H]3CCC4C[C@@H](OC5CC(O)C(O)C(CO)O5)CC[C@]4(C)[C@H]3CC[C@]12C (stereo in doubt),0.06
4,C[C@H](O)[C@H]1CC[C@@]2(O)[C@@H]3CCC4C[C@@H](OC5CC(O)C(O)C(CO)O5)CC[C@]4(C)[C@H]3CC[C@]12C (stereo in doubt; 5),0.4
5,CC(O)[C@H]1CC[C@@]2(O)[C@@H]3CCC4C[C@@H](O)CC[C@]4(C)[C@H]3CC[C@]12C (stereo partly drawn),6
6,CC(=O)[C@H]1CC[C@@]2(O)[C@@H]3CC[C@H]4CC(=O)CC[C@]4(C)[C@H]3CC[C@]12C,46
7,CC(=O)[C@H]1CC[C@@]2(O)[C@@H]3CC[C@H]4C[C@@H](O)CC[C@]4(C)[C@H]3CC[C@]12C,21
8,CC(=O)[C@@H]1CC[C@@]2(C)[C@@H](CC[C@@H]3[C@@H]2CC[C@]2(C)C([C@H](C)O)CC[C@@]32O)C1 (stereo partly drawn),6

# Source: ChEMBL document CHEMBL1124571, “Cardiac glycoside-like structure and function of 5 beta,14 beta-pregnanes” (J Med Chem, 1989)
